In patent US20040254197A1, “Injections for eye tissues containing drug bonded to polyethlene glycol” (SANTEN PHARMACEUTICAL CO., LTD., priority 2001, published 2004):

Key:
[1] = system: krypton laser-induced choroidal neovascularization; experiment: Effects of subconjunctivally administered betamethasone-PEG conjugate on krypton laser-induced choroidal neovascularization in rats; assay type: in vivo; conditions: single subconjunctival injection 50 μl (BM-PEG 40 mg/ml, BP 2.8 mg/ml), 14th day after photocoagulation, vehicle 71.9%
Description: 1) A one ml/kg mixed solution containing an aqueous ketamine hydrochloride solution (50 mg/ml) and an aqueous xylazine hydrochloride solution (50 mg/ml) in a ratio of 7:1 was administered intramuscularly to rats to anesthetize them systemically.
2) A 0.5% tropicamide-0.5% phenylephrine hydrochloride solution was instilled into the eyes to cause mydriasis, and then photocoagulation was performed with a krypton laser photocoagulation apparatus (red) under coagulation conditions of spot size of 100 μm, output of 100 mW and coagulation time of 0.1 sec.
3) Cover glass for observing tissues was used as a contact lens, the photocoagulation was carried out in a posterior pole portion of ocular fundus at eight spots per eye sparsely avoiding thick retinal vessels. The photocoagulation was carried out focusing on the retinal posterior portion in order to cut a Bruch's membrane. After the photocoagulation, the ocular fundus was photographed. […]
6) In the fluorescein fundus angiography, a photocoagulation site where fluorescence diapedesis was not observed was judged as negative, and a photocoagulation site where apparent fluorescence diapedesis was observed was judged as positive. When there are two photocoagulation sites where a little fluorescence diapedesis was observed, they were judged as positive. Each neovascularization exhibition rate was calculated according to the following equation. […]

[2] = Intraocular pharmacokinetic tests by fluorophotometry in rabbits after injection into the vitreous body; assay type: in vivo, white rabbits; conditions: rabbit, intravitreous injection
Description: Intraocular pharmacokinetic tests by fluorophotometry in rabbits It is difficult in terms of measurement techniques to actually trace transfer of slight amounts of tissues using the drug-PEG conjugate prepared above. Accordingly, fluorescein, which has fluorescence and can be measured with high sensitivity, was used as a model drug, a fluorescein-PEG conjugate (hereinafter referred to as “FL-PEG”) was synthesized, and intraocular pharmacokinetics tests were performed. Fluorescein sodium (hereinafter referred to as “FL”) was used as a comparative substance.
A 2.6% sterilized glycerin solution (10 ml) was added to FL-PEG (18 mg), and this liquid was stirred to dissolve FL-PEG to prepare an injection. A 10 μg/ml injection containing FL was prepared in the similar manner.
1) A mixed solution containing an aqueous ketamine hydrochloride solution (50 mg/ml) and an aqueous xylazine hydrochloride (50 mg/ml) in a ratio of 7:3 was administered intramuscularly to white rabbits to anesthetize.
2) A tropicamide (0.5%)/phenylephrine hydrochloride (0.5%) ophthalmic solution was instilled into eyes to cause mydriasis in the eyes.
3) The eyes were anesthetized with an oxybuprocaine hydrochloride (0.5%) ophthalmic solution.
4) The above-mentioned FL-PEG or FL liquid preparation was injected into the center of a vitreous body of one eye from an ocular pars plana in an amount of […] respectively with a syringe equipped with a 30 G needle.
5) Intraocular fluorescence intensity was measured with a fluorophotometry apparatus with the laps of time immediately after the administration to the vitreous body and at 1, 2, 4, 7, 15, 18, 23, 28, 35, 42, 49 and 56 days. A calibration curves were prepared, changes in concentration in the vitreous body and a retina were determined. Next, respective half-lives were calculated from the changes in concentration by a moment method. The above-mentioned operation 2) was carried out before the intraocular fluorescence intensity was measured.
The numerical values in the table are the average of three samples respectively. The half-life of FL-PEG in the vitreous body was calculated using measured values on forth to 28th day. […] The half-life of FL in the vitreous body was calculated using measured values immediately after the administration and on first day after the administration.

Half-life in vitreous body ([2]; fluorophotometry, moment method, average of three samples)	half-life ([2]; white, vitreous body, other: injection into the vitreous body (intravitreal), 1 µg/eye, fluorophotometry, moment method, average of three samples) [h]	Structure (SMILES)	Neovascularization exhibition rate (%) [1] [%]	Detection in the retina (changes in concentration, FIG. 2) ([2]; followed for 56 days)	Detection in the vitreous body (changes in concentration, FIG. 1) ([2]; followed for 56 days)
–	–	C[C@H]1C[C@H]2[C@@H]3CCC4=CC(=O)C=C[C@]4(C)[C@@]3(F)[C@@H](O)C[C@]2(C)[C@@]1(O)C(=O)COP(=O)(O)O [BP, Betamethasone phosphate]	50.0	–	–
less than four	< 4	O=C1OC2(c3ccc(O)cc3Oc3cc(O)ccc32)c2ccccc21 [FL, Fluorescein sodium]	–	detected only on first day after the administration	not detected on second day after the administration or later
